Series [1] deals with MDA-MB-468. As to the kind of experiment: Antiproliferative activity against human MDA-MB-468 cells expressing TrxR1 assessed as reduction in cell viability at 50 nM incubated for 48 hrs by MTT assay. The format is functional, cell-based. (In general: Tetrazolium assays rely on reduction of a dye to a coloured formazan, in cell work by metabolically active cells.)
Series [2] deals with MDA-MB-468. As to the kind of experiment: Induction of ferroptosis in human MDA-MB-468 cells expressing GPX4 assessed as reduction in lipid peroxidation level at 25 nM incubated for 6 hrs by C11-BODIPY staining based flow cytometry analysis. The format is functional, cell-based. A general note: In flow cytometry, cells or beads pass a laser one at a time.
For series [3], the system named is MDA-MB-468. Briefly: Induction of endoplasmic reticulum (ER) stress-mediated apoptosis in human MDA-MB-468 cells assessed as increase in CHOP expression at 25 nM measured after 12 hrs by Western blot analysis. Type of series: functional, cell-based. (In general: Immunoblotting shows a protein as a band on a membrane.)
Series [4] has as its system MDA-MB-468. As to the kind of experiment: Induction of ferroptosis in human MDA-MB-468 cells assessed as decrease in 4-HNE level at 25 nM in presence of ferrostatin-1. The format is functional, cell-based.
The test system of series [5] is MDA-MB-468. Briefly: Induction of ferroptosis in human MDA-MB-468 cells assessed as lipid peroxidation level by measuring fluorescence intensity at 25 nM incubated for 6 hrs in presence of ferrostatin-1 by C11-BODIPY staining based microscopic analysis. The format is functional, cell-based.
Series [6] concerns MDA-MB-468. As to the kind of experiment: Induction of endoplasmic reticulum (ER) stress-mediated apoptosis in human MDA-MB-468 cells assessed as increase in ATF4 expression at 25 nM measured at 4 to 48 hrs by Western blot analysis. The format is functional, cell-based. As to conditions: time 4-48 hrs.
The target of series [7] is T1, Thioredoxin reductase 1, cytoplasmic (Homo sapiens) (UniProt Q16881).
T1 sequence (whole entry): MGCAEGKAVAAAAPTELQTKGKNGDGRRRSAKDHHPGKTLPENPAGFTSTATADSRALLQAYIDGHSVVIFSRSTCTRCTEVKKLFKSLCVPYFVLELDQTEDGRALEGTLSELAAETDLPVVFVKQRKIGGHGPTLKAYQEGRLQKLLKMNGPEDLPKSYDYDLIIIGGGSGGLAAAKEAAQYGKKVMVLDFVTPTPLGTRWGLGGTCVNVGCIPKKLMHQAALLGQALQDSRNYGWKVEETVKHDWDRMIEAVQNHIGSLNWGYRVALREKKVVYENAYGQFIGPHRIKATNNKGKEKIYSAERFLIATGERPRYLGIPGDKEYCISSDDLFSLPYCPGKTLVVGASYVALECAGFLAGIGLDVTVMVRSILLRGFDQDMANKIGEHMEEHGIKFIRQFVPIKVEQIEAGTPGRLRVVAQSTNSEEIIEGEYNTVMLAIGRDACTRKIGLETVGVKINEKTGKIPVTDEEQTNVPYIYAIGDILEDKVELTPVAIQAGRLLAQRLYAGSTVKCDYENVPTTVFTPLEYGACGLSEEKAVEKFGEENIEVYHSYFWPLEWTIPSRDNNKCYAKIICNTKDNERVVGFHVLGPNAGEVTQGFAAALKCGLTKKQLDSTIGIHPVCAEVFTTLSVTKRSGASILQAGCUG
Briefly: Inhibition of TRXR1 in human MDA-MB-468 cells incubated for 24 hrs by. The format is cell-based.

For series [8], the system named is MDA-MB-468. As to the kind of experiment: Induction of ferroptosis in human MDA-MB-468 cells assessed as increase in cell viability at 25 nM incubated for 48 hrs in presence of ferrostatin-1. Type of series: functional, cell-based.
Series [9] concerns MDA-MB-468. Briefly: Induction of ferroptosis in human MDA-MB-468 cells assessed as increase in lipid peroxidation at 25 nM by C11-BODIPY staining based flow cytometry analysis. The format is functional, cell-based. To be noted: time <= 24.0 hrs.
Series [10] deals with MDA-MB-468. Briefly: Antiproliferative activity against human MDA-MB-468 cells expressing GPX4 assessed as cell viability at 25 nM incubated for 48 hrs by MTT assay. The format is functional, cell-based.
In series [11] the test system is MDA-MB-468. Briefly: Induction of endoplasmic reticulum (ER) stress-mediated apoptosis in human MDA-MB-468 cells assessed as increase in CHOP expression at 25 nM measured at 4 to 48 hrs by Western blot analysis. The format is functional, cell-based. To be noted: time 4-48 hrs.
For series [12], the system named is MDA-MB-468. As to the kind of experiment: Induction of endoplasmic reticulum (ER) stress-mediated apoptosis in human MDA-MB-468 cells assessed as increase in ATF4 expression at 25 nM measured at 2 hrs by Western blot analysis. Type of series: functional, cell-based.
Series [13] deals with 4T1. Briefly: Antitumor activity against mouse 4T1 cells implanted in female BALB/c mouse model assessed as increase in cleaved caspase-3 level in tumor at 10 mg/kg, iv administered upto 5 days. To be noted: time <= 5.0 day. Type of series: functional, organism-based.
For series [14], the system named is MDA-MB-468. As to the kind of experiment: Induction of apoptosis in human MDA-MB-468 cells assessed as increase in cleaved caspase 3 level at 25 nM measured after 48 hrs by Western blot analysis. Type of series: functional, cell-based.
A short description of series [15]: Toxicity in female BALB/c mouse implanted with mouse 4T1 cells assessed as kidney lesion at 10 mg/kg, iv. The format is organism-based. To be noted: in vivo.
The test system of series [16] is MDA-MB-468. Briefly: Induction of ROS production in human MDA-MB-468 cells assessed as increase in ROS level at 25 nM incubated for 6 hrs by DCFH-DA staining based confocal microscopic analysis. The format is functional, cell-based.
In series [17] the test system is Cisplatin-resistant 4T1. As to the kind of experiment: Antitumor activity against mouse Cisplatin-resistant 4T1 cells implanted in female BALB/c mouse assessed as increase in 4-HNE level at 10 mg/kg, ip. The format is functional, organism-based.
A short description of series [18]: Toxicity in female BALB/c mouse implanted with mouse 4T1 cells assessed as heart inflammation at 10 mg/kg, iv. The format is organism-based. As to conditions: in vivo.
Series [19] is described as follows: Toxicity in female BALB/c mouse implanted with mouse 4T1 cells assessed as lung inflammation at 10 mg/kg, iv. To be noted: in vivo. Type of series: organism-based.
The test system of series [20] is 4T1. As to the kind of experiment: Antitumor activity against mouse 4T1 cells implanted in female BALB/c mouse assessed as increase in phospho PERK level in tumor at 10 mg/kg, iv administered upto 5 days by Western blot analysis. Type of series: functional, organism-based. As to conditions: time <= 5.0 day.
A short description of series [21]: Toxicity in female BALB/c mouse implanted with mouse 4T1 cells assessed as spleen damage at 10 mg/kg, iv. Type of series: organism-based. To be noted: in vivo.
In series [22] the test system is 4T1. As to the kind of experiment: Antitumor activity against mouse 4T1 cells implanted in female BALB/c mouse at 10 mg/kg, iv administered upto 5 days. Type of series: functional, organism-based. To be noted: time <= 5.0 day.
The subject of series [23] is 4T1. Briefly: Antitumor activity against mouse 4T1 cells implanted in female BALB/c mouse assessed as increase in ATF4 level in tumor at 10 mg/kg, iv administered upto 5 days by Western blot analysis. To be noted: time <= 5.0 day. Type of series: functional, organism-based.
For series [24], the system named is MDA-MB-468. Briefly: Antiproliferative activity against human MDA-MB-468 cells assessed as cell viability at 10 nM incubated for 48 hrs by MTT assay. Type of series: functional, cell-based.
Series [25] is described as follows: Toxicity in female BALB/c mouse implanted with mouse 4T1 cells assessed as lung abnormality at 10 mg/kg, iv. Type of series: organism-based. To be noted: in vivo.
For series [26], the system named is 4T1. As to the kind of experiment: Antitumor activity against mouse 4T1 cells implanted in female BALB/c mouse assessed as increase in CHOP level in tumor at 10 mg/kg, iv administered upto 5 days by Western blot analysis. Type of series: functional, organism-based. As to conditions: time <= 5.0 day.
A short description of series [27]: Toxicity in female BALB/c mouse implanted with mouse 4T1 cells assessed as liver lesion at 10 mg/kg, iv. The format is organism-based. As to conditions: in vivo.
Series [28] deals with Cisplatin-resistant 4T1. As to the kind of experiment: Antitumor activity against mouse Cisplatin-resistant 4T1 cells implanted in female BALB/c mouse assessed as reduction in tumor volume at 10 mg/kg, ip. Type of series: functional, organism-based.
Series [29] concerns MDA-MB-468. As to the kind of experiment: Induction of apoptosis in human MDA-MB-468 cells assessed as increase in cleaved PARP level at 25 nM measured after 48 hrs by Western blot analysis. The format is functional, cell-based.
Series [30] is described as follows: Toxicity in female BALB/c mouse implanted with mouse 4T1 cells assessed as spleen lesion at 10 mg/kg, iv. Type of series: organism-based. To be noted: in vivo.

Activity calls are given as the source filed them. The calls are words filed in the database; no cut-off is given here.

The values that follow come from ChEMBL document CHEMBL6078706, “Deciphering the Comprehensive Structure-Activity Relationship of Sunshinamide for Breast Cancer Therapy through Dual Modulation of Apoptotic and Ferroptotic Pathways via TrxR1 and Gpx4 Inhibition” (J Med Chem, 2024).

`CCCCCCC[C@@H](O)CC(=O)N[C@H](Cc1ccccc1)C(=O)N[C@H]1CSSC[C@@H](C(=O)O)NC1=O`: the outcome in the series on MDA-MB-468 [1], in the series on MDA-MB-468 [2], in the series with MDA-MB-468 [4], in the series with MDA-MB-468 [5], with MDA-MB-468 [6] and in the series with MDA-MB-468 [11] was Active. In addition, the outcome with MDA-MB-468 [3], in the series on MDA-MB-468 [8] and with MDA-MB-468 [10] was inactive. For the same compound, the inhibition result in [7] is “Active”. Further, the Activity entry in the series with MDA-MB-468 [9] was “Time-dependent-effect”.
Consider `CCCCCCC[C@@H]1CC(=O)N[C@H](Cc2ccccc2)C(=O)N[C@@H](CSC)C(=O)N[C@@H](CSC)C(=O)O1`, for which the outcome with MDA-MB-468 [1], with MDA-MB-468 [2], in the series on MDA-MB-468 [4], with MDA-MB-468 [5], in the series on MDA-MB-468 [6] and in the series with MDA-MB-468 [11] was Active. Also, the result in the series on MDA-MB-468 [3], in the series on MDA-MB-468 [8] and in the series with MDA-MB-468 [10] was inactive. In addition, the inhibition entry in [7] was “Active”. In addition, the Activity result in the series with MDA-MB-468 [9] was “Time-dependent-effect”.
Take `CCCCCCC[C@@H]1CC(=O)N[C@H](Cc2ccccc2)C(=O)N[C@H]2CSSC[C@H](NC2=O)C(=O)O1`: the outcome in the series with MDA-MB-468 [12], in the series with MDA-MB-468 [1], in the series with 4T1 [13], with MDA-MB-468 [14], with MDA-MB-468 [16] and in the series on Cisplatin-resistant 4T1 [17] was Active. Moreover, the outcome in the series with MDA-MB-468 [3], in the series on MDA-MB-468 [4], in the series with 4T1 [20], in the series with MDA-MB-468 [5], in the series on 4T1 [22] and in the series with 4T1 [23] was Active. Besides, the outcome in the series with MDA-MB-468 [24], in the series on 4T1 [26], in the series with Cisplatin-resistant 4T1 [28] and in the series on MDA-MB-468 [29] was Active. The Activity result in [15], in [18], in series [19], in series [21], in series [25] and in series [27] was “Non-toxic” in each case. Also, the Activity entry in series [30] is on record as “Non-toxic”. In series [7], the inhibition result is “Active”. In addition, the outcome in the series on MDA-MB-468 [8] and with MDA-MB-468 [10] was inactive.
